Laboratory results: the Biogen ADME set (Fang et al. 2023)
≈ marks a conversion by molar mass, not a printed value. Blank lines part the entries; values can stand above or below the compound they belong to.

Conditions: for aqueous solubility: pH 6.8

MDR1-MDCK efflux ratio: 0.246 | intrinsic clearance, human liver microsomes: 85.5 mL/min/kg | intrinsic clearance, rat liver microsomes: 80.9 mL/min/kg | aqueous solubility: 33 µg/mL (≈ 131 µM)
Structure (SMILES): COc1ccccc1C(=O)Nc1cccc(C#N)c1

MDR1-MDCK efflux ratio: 7.37 | fraction unbound, human plasma: 0.128 | fraction unbound, rat plasma: 0.152 | intrinsic clearance, human liver microsomes: 9.86 mL/min/kg | intrinsic clearance, rat liver microsomes: 1090 mL/min/kg | aqueous solubility: 52.1 µg/mL (≈ 169 µM)
Structure (SMILES): CN1[C@@H]2CC[C@H]1C[C@H](OC(c1ccccc1)c1ccccc1)C2

aqueous solubility: 37.5 µg/mL (≈ 115 µM)
Structure (SMILES): COc1ccc(-c2csc(CC(N)=O)n2)cc1Br

MDR1-MDCK efflux ratio: 37.7 | intrinsic clearance, human liver microsomes: 27.7 mL/min/kg | intrinsic clearance, rat liver microsomes: 80.8 mL/min/kg | aqueous solubility: 53.8 µg/mL (≈ 167 µM)
Structure (SMILES): CC(=O)NC1(C(=O)N2CCCN(C3CC3)CC2)CCC(C)CC1 (stereo not given)

MDR1-MDCK efflux ratio: 0.438 | aqueous solubility: 0.35 µg/mL (≈ 1.06 µM)
Structure (SMILES): Cc1nc(-c2ccccc2)c(C(=O)Nc2ccc(Cl)cc2)s1

MDR1-MDCK efflux ratio: 24.3 | fraction unbound, human plasma: 0.0709 | fraction unbound, rat plasma: 0.0381 | intrinsic clearance, human liver microsomes: ≤ 4.74 mL/min/kg | intrinsic clearance, rat liver microsomes: 37.9 mL/min/kg
Structure (SMILES): Cn1cc(Nc2nc(N)nc(-c3cccc(-n4ccc5cc(C6CC6)cc(F)c5c4=O)c3CO)n2)cn1

MDR1-MDCK efflux ratio: 66.1 | intrinsic clearance, human liver microsomes: 36.5 mL/min/kg | intrinsic clearance, rat liver microsomes: 651 mL/min/kg | aqueous solubility: 54.5 µg/mL (≈ 161 µM)
Structure (SMILES): Cc1ccc2c(CC(=O)N(C)Cc3nnc4n3CCC4)coc2c1C

MDR1-MDCK efflux ratio: 0.757 | intrinsic clearance, human liver microsomes: ≤ 4.74 mL/min/kg | intrinsic clearance, rat liver microsomes: ≤ 10.7 mL/min/kg
Structure (SMILES): Cn1ncnc1NCc1cc(F)cc(F)c1

MDR1-MDCK efflux ratio: 0.716 | intrinsic clearance, human liver microsomes: 24.6 mL/min/kg | intrinsic clearance, rat liver microsomes: 370 mL/min/kg | aqueous solubility: 27 µg/mL (≈ 111 µM)
Structure (SMILES): CCn1nc(C2CCCC2)nc1-c1ccncc1

MDR1-MDCK efflux ratio: 40.6 | intrinsic clearance, human liver microsomes: 7.73 mL/min/kg | intrinsic clearance, rat liver microsomes: 20.8 mL/min/kg | aqueous solubility: 36.1 µg/mL (≈ 106 µM)
Structure (SMILES): CC(C)c1noc2nc(C3CC3)cc(C(=O)N3CCN(C)C(=O)C3)c12

MDR1-MDCK efflux ratio: 0.711 | intrinsic clearance, human liver microsomes: 4.88 mL/min/kg | intrinsic clearance, rat liver microsomes: ≤ 10.7 mL/min/kg | aqueous solubility: 45 µg/mL (≈ 135 µM)
Structure (SMILES): O=C(O)c1cccc(N2CCC(Oc3ccc(Cl)cc3)CC2)n1

MDR1-MDCK efflux ratio: 0.338 | intrinsic clearance, human liver microsomes: 120 mL/min/kg | intrinsic clearance, rat liver microsomes: 190 mL/min/kg | aqueous solubility: 31.7 µg/mL (≈ 55.2 µM)
Structure (SMILES): Cc1cn(CCN2CCN(c3ccccc3-c3cc(C#N)cc(C(=O)NCCCN4CCCC4)c3)CC2)c2ccccc12

MDR1-MDCK efflux ratio: 1.22 | intrinsic clearance, human liver microsomes: 76.3 mL/min/kg | intrinsic clearance, rat liver microsomes: 510 mL/min/kg
Structure (SMILES): Cc1cccc(N2CCN(CCCCNC(=O)c3c(F)cccc3F)CC2)c1

MDR1-MDCK efflux ratio: 0.975 | intrinsic clearance, human liver microsomes: ≤ 4.74 mL/min/kg | intrinsic clearance, rat liver microsomes: 144 mL/min/kg | aqueous solubility: 47.8 µg/mL (≈ 174 µM)
Structure (SMILES): CC(C)(C)c1ccc(CN2CCC(C(N)=O)CC2)cc1

MDR1-MDCK efflux ratio: 0.572 | intrinsic clearance, human liver microsomes: 102 mL/min/kg | intrinsic clearance, rat liver microsomes: 338 mL/min/kg | aqueous solubility: 6.55 µg/mL (≈ 29.7 µM)
Structure (SMILES): CCOc1ccc(-c2csc(N)n2)cc1

MDR1-MDCK efflux ratio: 10.9 | intrinsic clearance, human liver microsomes: ≤ 4.74 mL/min/kg | intrinsic clearance, rat liver microsomes: ≤ 10.7 mL/min/kg | aqueous solubility: 85.3 µg/mL (≈ 325 µM)
Structure (SMILES): CCCNC(=O)C1(Cc2ccccn2)CCOCC1

MDR1-MDCK efflux ratio: 1.46 | intrinsic clearance, human liver microsomes: 6.69 mL/min/kg | intrinsic clearance, rat liver microsomes: 76.3 mL/min/kg | aqueous solubility: 36.7 µg/mL (≈ 137 µM)
Structure (SMILES): CC(C)CN1CC[C@H](c2nc3ccc(C#N)cc3[nH]2)C1

The remaining lines, values behind:

Structure (SMILES): O=C1CCC(=O)N1Cc1nc(Cc2ccccc2)cs1
intrinsic clearance, human liver microsomes: ≤ 4.74 mL/min/kg | intrinsic clearance, rat liver microsomes: 145 mL/min/kg

Structure (SMILES): Cc1cc(C(=O)NC(C)(C)C#N)nn1-c1ccc(F)cc1
MDR1-MDCK efflux ratio: 1.35 | intrinsic clearance, human liver microsomes: ≤ 4.74 mL/min/kg | intrinsic clearance, rat liver microsomes: 19.7 mL/min/kg

Structure (SMILES): c1ccc(-c2cc3c(N4CCC(c5ncc[nH]5)CC4)ncnc3s2)cc1
MDR1-MDCK efflux ratio: 17.8 | intrinsic clearance, human liver microsomes: 117 mL/min/kg | intrinsic clearance, rat liver microsomes: 1550 mL/min/kg | aqueous solubility: 4.15 µg/mL (≈ 11.5 µM)

Structure (SMILES): CC(C)(C)NC(=O)c1cncn1C1CCN(c2ccc(-c3nnc(C(F)(F)F)o3)cn2)CC1
MDR1-MDCK efflux ratio: 8.45 | intrinsic clearance, human liver microsomes: ≤ 4.74 mL/min/kg | intrinsic clearance, rat liver microsomes: 25.3 mL/min/kg | aqueous solubility: 61.1 µg/mL (≈ 132 µM)

Structure (SMILES): O=c1[nH]c2ccccc2n1C1CCN(Cc2nc(-c3ccsc3)no2)CC1
MDR1-MDCK efflux ratio: 3.73 | intrinsic clearance, human liver microsomes: 16.3 mL/min/kg | intrinsic clearance, rat liver microsomes: 263 mL/min/kg | aqueous solubility: 5.8 µg/mL (≈ 15.2 µM)

Structure (SMILES): O=C(NCC1CC1)c1cncn1-c1ccc(F)cc1
MDR1-MDCK efflux ratio: 1.26 | intrinsic clearance, human liver microsomes: ≤ 4.74 mL/min/kg | intrinsic clearance, rat liver microsomes: ≤ 10.7 mL/min/kg | aqueous solubility: 52.2 µg/mL (≈ 201 µM)

Structure (SMILES): Cc1nccc(NC(=O)c2ccncc2Cl)c1Cl
MDR1-MDCK efflux ratio: 0.729 | intrinsic clearance, human liver microsomes: 21.2 mL/min/kg | intrinsic clearance, rat liver microsomes: 78.1 mL/min/kg

Structure (SMILES): O=C(c1cccc(Cl)c1)N1CCN(C(=O)c2ccc3ccccc3c2O)CC1
MDR1-MDCK efflux ratio: 0.678 | intrinsic clearance, human liver microsomes: 28.8 mL/min/kg | intrinsic clearance, rat liver microsomes: 166 mL/min/kg | aqueous solubility: 2.4 µg/mL (≈ 6.08 µM)

Structure (SMILES): CCOc1ccccc1NC(=O)C(=O)NCc1ccccc1F
aqueous solubility: 0.34 µg/mL (≈ 1.07 µM)

Structure (SMILES): O=C1CCCN1c1ccc(S(=O)(=O)Nc2cccc(-c3nnc4n3CCC4)c2)cc1
MDR1-MDCK efflux ratio: 9.93

Structure (SMILES): CN1CC[C@@H](c2c(O)cc(O)c3c(=O)cc(-c4ccccc4Cl)oc23)[C@@H]1CO
MDR1-MDCK efflux ratio: 122 | intrinsic clearance, human liver microsomes: 27 mL/min/kg | intrinsic clearance, rat liver microsomes: 142 mL/min/kg | aqueous solubility: 64.9 µg/mL (≈ 162 µM)

Structure (SMILES): Cc1cc(Br)cn(Cc2ccc(C#N)cc2F)c1=O
MDR1-MDCK efflux ratio: 0.644 | intrinsic clearance, human liver microsomes: ≤ 4.74 mL/min/kg | intrinsic clearance, rat liver microsomes: 102 mL/min/kg

Structure (SMILES): Cc1c[nH]c2nccc(Oc3c(F)cc(Nc4cc(Cl)nc(N)n4)cc3F)c12
MDR1-MDCK efflux ratio: 2.53 | fraction unbound, human plasma: 0.0006 | fraction unbound, rat plasma: 0.00206 | intrinsic clearance, human liver microsomes: 14.3 mL/min/kg | intrinsic clearance, rat liver microsomes: 173 mL/min/kg

Structure (SMILES): Cc1cccnc1NC(=O)Cc1coc2c(C)c(C)ccc12
MDR1-MDCK efflux ratio: 0.636 | intrinsic clearance, human liver microsomes: 124 mL/min/kg | intrinsic clearance, rat liver microsomes: 4310 mL/min/kg | aqueous solubility: 74.7 µg/mL (≈ 254 µM)

Structure (SMILES): Cc1ccsc1C(=O)Nc1nc2ccccc2s1
MDR1-MDCK efflux ratio: 0.136 | aqueous solubility: 0.29 µg/mL (≈ 1.06 µM)

Structure (SMILES): COc1cccc(Cc2nc3sc4c(c3c(=O)[nH]2)CCSC4)c1
MDR1-MDCK efflux ratio: 1.02 | intrinsic clearance, human liver microsomes: 113 mL/min/kg | intrinsic clearance, rat liver microsomes: 2820 mL/min/kg

Structure (SMILES): Cc1cnc(-c2nc(NCc3cccnc3)ncc2-c2cc(C)no2)cn1
intrinsic clearance, human liver microsomes: 17.1 mL/min/kg | intrinsic clearance, rat liver microsomes: 261 mL/min/kg

Structure (SMILES): CN(C(=O)[C@@H](N)Cc1ccccc1)c1ccccc1
intrinsic clearance, human liver microsomes: ≤ 4.74 mL/min/kg | intrinsic clearance, rat liver microsomes: 392 mL/min/kg

Structure (SMILES): O=C1N=C(N2CCCCN2)S/C1=C\c1ccc(F)cc1O
MDR1-MDCK efflux ratio: 1.69 | aqueous solubility: 0.9 µg/mL (≈ 2.93 µM)

Structure (SMILES): CNC(=O)c1ccccc1Nc1nc(Nc2ccc(N3CCOCC3)cc2OC)ncc1Cl
MDR1-MDCK efflux ratio: 3.06 | intrinsic clearance, human liver microsomes: 14.9 mL/min/kg | intrinsic clearance, rat liver microsomes: 95.1 mL/min/kg | aqueous solubility: 1.95 µg/mL (≈ 4.15 µM)

Structure (SMILES): COc1cccc(-c2nnn(Cc3cc(F)cc4cccnc34)n2)c1
MDR1-MDCK efflux ratio: 0.486 | aqueous solubility: 0.14 µg/mL (≈ 0.417 µM)

Structure (SMILES): NC(=O)Cn1c2ccccc2c2nc3ccccc3nc21
aqueous solubility: 0.15 µg/mL (≈ 0.543 µM)

Structure (SMILES): N#Cc1cccc(CN2CCOC[C@H](O)C2)c1
intrinsic clearance, human liver microsomes: 7.9 mL/min/kg | intrinsic clearance, rat liver microsomes: 12 mL/min/kg | aqueous solubility: 21.1 µg/mL (≈ 90.9 µM)

Structure (SMILES): Cc1ccc2oc(C(=O)N3CC[C@H](O)[C@@H](N4CCOCC4)CC3)cc2c1
MDR1-MDCK efflux ratio: 2.46 | intrinsic clearance, human liver microsomes: 16.6 mL/min/kg | intrinsic clearance, rat liver microsomes: 1260 mL/min/kg

Structure (SMILES): CC(C)(C)C(=O)Nc1sc2c(c1C#N)CCC2
aqueous solubility: 1.91 µg/mL (≈ 7.69 µM)
